# Legend:
# wild oat = experiment: Test Example 5: herbicidal effect by foliage application, plastic box (Table 20, symbol I); format: in vivo, wild oat (Avena fatua); conditions: foliage application, three weeks after application
# How it was run: (§1)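 Foliar spray test: emulsion formulation diluted in water to a set application rate, sprayed onto 14-day-old plants raised in diluvial soil at 25° C to 30° C under glass. Both herbicidal effect and crop effect rated visually three weeks later.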
# windgrass = experiment: Test Example 5: herbicidal effect by foliage application, plastic box (Table 20, symbol L); format: in vivo, windgrass (Apera spica-venti); conditions: foliage application, three weeks after application
# How it was run: as §1
# blackgrass = experiment: Test Example 5: herbicidal effect by foliage application, plastic box (Table 20, symbol J); format: in vivo, blackgrass (Alopecurus myosuroides); conditions: foliage application, three weeks after application
# How it was run: as §1
# Chinese sprangletop = experiment: Test Example 3: herbicidal effect by foliage application, Wagner pot (Table 18, symbol D); format: in vivo, chinese sprangletop (Leptochloa chinensis)
# Experimental: [Test Example 3] Herbicidal Effect Test by Foliage Application After alluvial soil was placed into 1/10000 are of Wagner pot, water was poured and mixed to form a submerged condition having a water depth of 0.1 cm to 0.5 cm. Seeds of barnyard grass, Chinese sprangletop, rice flat sedge, and rice were sowed and the pot was placed in a greenhouse at 25° C. to 30° C. for growth of the plants. After 14-day growth of the plants, the emulsion agent of the compound of the present invention prepared according to Formulation Example 2 was diluted with water so as to achieve a predetermined herbicide amount, and the diluted emulsion agent was uniformly applied to a foliage part with a small-sized spray. Three weeks after the herbicide application, the effect of the herbicide on each plant was evaluated according to the criteria of Test Example 1.
# lambsquarters = experiment: Test Example 5: herbicidal effect by foliage application, plastic box (Table 20, symbol O); format: in vivo, lambsquarters (Chenopodium album); conditions: foliage application, three weeks after application
# From the text: (§2) [Test Example 5] Herbicidal Effect Test by Foliage Application
# (§3) Sterilized diluvial soil was placed in a plastic box having a length of 21 cm, a width of 13 cm, and a depth of 7 cm. The seeds of each of southern crabgrass, green foxtail, barnyard grass, wild oat, blackgrass, Italian ryegrass, windgrass, velvetleaf, redroot pigweed, lambsquarters, chickweed, false cleavers, persian speedwell, corn, soybean, rice, wheat, beet, and rapeseed were sowed in a spot-like manner and covered with the soil having a thickness of about 1.5 cm. Thereafter, the plants were grown in a greenhouse at 25° C. to 30° C. After 14-day growth of the plants, the emulsion agent of the compound of the present invention prepared according to Formulation Example 2 was diluted with water so as to achieve a predetermined herbicide amount, and the diluted emulsion agent was uniformly applied to a foliage part with a small-sized spray. Three weeks after the herbicide application, the effect of the herbicide on each plant was evaluated according to the criteria of Test Example 1.
# rice flat sedge = experiment: Test Example 3: herbicidal effect by foliage application, Wagner pot (Table 18, symbol E); format: in vivo, rice flat sedge (Cyperus iria)
# How it was run: (§4)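 Plants were sown in alluvial soil held under 0.1–0.5 cm standing water and grown 14 days in a greenhouse at 25–30 °C. An emulsifiable formulation, water-diluted to the set dose, was then sprayed onto the foliage, and effects were scored three weeks later using previously defined criteria.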
# barnyard grass [1] = experiment: Test Example 3: herbicidal effect by foliage application, Wagner pot (Table 18, symbol H); format: in vivo, barnyard grass (Echinochloa crus-galli)
# How it was run: as §4
# green foxtail = experiment: Test Example 5: herbicidal effect by foliage application, plastic box (Table 20, symbol G); format: in vivo, green foxtail (Setaria viridis); conditions: foliage application, three weeks after application
# How it was run: as §1
# Italian ryegrass = experiment: Test Example 5: herbicidal effect by foliage application, plastic box (Table 20, symbol K); format: in vivo, Italian ryegrass (Lolium multiflorum); conditions: foliage application, three weeks after application
# From the text: as §2, §3
# velvetleaf = experiment: Test Example 5: herbicidal effect by foliage application, plastic box (Table 20, symbol M); format: in vivo, velvetleaf (Abutilon theophrasti); conditions: foliage application, three weeks after application
# From the text: as §2, §3
# persian speedwell = experiment: Test Example 5: herbicidal effect by foliage application, plastic box (Table 20, symbol R); format: in vivo, Persian speedwell (Veronica persica); conditions: foliage application, three weeks after application
# How it was run: as §1
# barnyard grass [2] = experiment: Test Example 5: herbicidal effect by foliage application, plastic box (Table 20, symbol H); format: in vivo, barnyard grass (Echinochloa crus-galli); conditions: foliage application, three weeks after application
# From the text: as §2, §3
# southern crabgrass = experiment: Test Example 5: herbicidal effect by foliage application, plastic box (Table 20, symbol F); format: in vivo, southern crabgrass (Digitaria ciliaris); conditions: foliage application, three weeks after application
# How it was run: as §1
Structure (SMILES),herbicidal effect on wild oat (I) (wild oat; 320 g/ha),herbicidal effect on windgrass (L) (windgrass; 320 g/ha),herbicidal effect on blackgrass (J) (blackgrass; 320 g/ha),herbicidal effect on Chinese sprangletop (D) (Chinese sprangletop; 320 g/ha),herbicidal effect on lambsquarters (O) (lambsquarters; 320 g/ha),herbicidal effect on rice flat sedge (E) (rice flat sedge; 320 g/ha),herbicidal effect on barnyard grass (H) (barnyard grass [1]; 320 g/ha),herbicidal effect on green foxtail (G) (green foxtail; 320 g/ha),herbicidal effect on Italian ryegrass (K) (Italian ryegrass; 320 g/ha),herbicidal effect on velvetleaf (M) (velvetleaf; 320 g/ha),herbicidal effect on persian speedwell (R) (persian speedwell; 320 g/ha),herbicidal effect on barnyard grass (H) (barnyard grass [2]; 320 g/ha),herbicidal effect on southern crabgrass (F) (southern crabgrass; 320 g/ha),also measured
COc1cc2sc(-c3ccc(F)cc3)c(-c3c(O)c(C)nn(C)c3=O)c2cc1-c1ccc(F)cc1 [5-078],,,,,,,,,,,,,,herbicidal effect on wild oat (I) (wild oat; 270 g/ha): 0 (Herbicidal rate of 5% or less (almost no effect)); herbicidal effect on windgrass (L) (windgrass; 270 g/ha): 0 (Herbicidal rate of 5% or less (almost no effect)); herbicidal effect on blackgrass (J) (blackgrass; 270 g/ha): 0 (Herbicidal rate of 5% or less (almost no effect)); herbicidal effect on Chinese sprangletop (D) (Chinese sprangletop; 270 g/ha): 4 (Herbicidal rate of 70% or more and less than 90%); herbicidal effect on lambsquarters (O) (lambsquarters; 270 g/ha): 1 (Herbicidal rate of 5% or more and less than 20%); herbicidal effect on rice flat sedge (E) (rice flat sedge; 270 g/ha): 3 (Herbicidal rate of 40% or more and less than 70%); herbicidal effect on barnyard grass (H) (barnyard grass [1]; 270 g/ha): 4 (Herbicidal rate of 70% or more and less than 90%); herbicidal effect on green foxtail (G) (green foxtail; 270 g/ha): 5 (Herbicidal rate of 90% or more (almost completely withered)); herbicidal effect on Italian ryegrass (K) (Italian ryegrass; 270 g/ha): 0 (Herbicidal rate of 5% or less (almost no effect)); herbicidal effect on velvetleaf (M) (velvetleaf; 270 g/ha): 3 (Herbicidal rate of 40% or more and less than 70%); herbicidal effect on persian speedwell (R) (persian speedwell; 270 g/ha): 0 (Herbicidal rate of 5% or less (almost no effect)); herbicidal effect on barnyard grass (H) (barnyard grass [2]; 270 g/ha): 4 (Herbicidal rate of 70% or more and less than 90%); herbicidal effect on southern crabgrass (F) (southern crabgrass; 270 g/ha): 4 (Herbicidal rate of 70% or more and less than 90%)
Cc1nn(C)c(=O)c(-c2c(-c3ccc(OC(F)F)cc3)sc3cc(Cl)c(Cl)cc23)c1O [5-086],0 (Herbicidal rate of 5% or less (almost no effect)),5 (Herbicidal rate of 90% or more (almost completely withered)),5 (Herbicidal rate of 90% or more (almost completely withered)),0 (Herbicidal rate of 5% or less (almost no effect)),5 (Herbicidal rate of 90% or more (almost completely withered)),0 (Herbicidal rate of 5% or less (almost no effect)),3 (Herbicidal rate of 40% or more and less than 70%),0 (Herbicidal rate of 5% or less (almost no effect)),0 (Herbicidal rate of 5% or less (almost no effect)),3 (Herbicidal rate of 40% or more and less than 70%),5 (Herbicidal rate of 90% or more (almost completely withered)),0 (Herbicidal rate of 5% or less (almost no effect)),0 (Herbicidal rate of 5% or less (almost no effect)),
COc1ccccc1-c1sc2c(C)cc(C)cc2c1-c1c(O)c(C)nn(C)c1=O [6-002],0 (Herbicidal rate of 5% or less (almost no effect)),1 (Herbicidal rate of 5% or more and less than 20%),4 (Herbicidal rate of 70% or more and less than 90%),5 (Herbicidal rate of 90% or more (almost completely withered)),2 (Herbicidal rate of 20% or more and less than 40%),3 (Herbicidal rate of 40% or more and less than 70%),4 (Herbicidal rate of 70% or more and less than 90%),3 (Herbicidal rate of 40% or more and less than 70%),4 (Herbicidal rate of 70% or more and less than 90%),1 (Herbicidal rate of 5% or more and less than 20%),4 (Herbicidal rate of 70% or more and less than 90%),0 (Herbicidal rate of 5% or less (almost no effect)),0 (Herbicidal rate of 5% or less (almost no effect)),

# — patent publication US20230085307A1, “PYRIDAZINONE COMPOUND AND HERBICIDE” (NISSAN CHEMICAL CORPORATION, priority 2019, published 2023)
